According to patent publication US9238631B2, “Radiolabeled amino acids for diagnostic imaging” (PIRAMAL IMAGING SA, priority 2011, dated 2016):

What was measured:
xCT (SLC7A11) = biological target: T1, xCT (SLC7A11) (Homo sapiens, UniProt Q9UPY5); assay: Competition profile indicating uptake via xCT (SLC7A11); format: cell-based; conditions: co-incubation with 1 mM cold competitors, NCI-H460 cells
T1 construct: NCI-H460 tumor cells were co-incubated with the F-18 labeled tracer and several cold derivatives; endogenous in cells; host or cells: NCI-H460 tumor cells
T1 sequence (Q9UPY5 1-501): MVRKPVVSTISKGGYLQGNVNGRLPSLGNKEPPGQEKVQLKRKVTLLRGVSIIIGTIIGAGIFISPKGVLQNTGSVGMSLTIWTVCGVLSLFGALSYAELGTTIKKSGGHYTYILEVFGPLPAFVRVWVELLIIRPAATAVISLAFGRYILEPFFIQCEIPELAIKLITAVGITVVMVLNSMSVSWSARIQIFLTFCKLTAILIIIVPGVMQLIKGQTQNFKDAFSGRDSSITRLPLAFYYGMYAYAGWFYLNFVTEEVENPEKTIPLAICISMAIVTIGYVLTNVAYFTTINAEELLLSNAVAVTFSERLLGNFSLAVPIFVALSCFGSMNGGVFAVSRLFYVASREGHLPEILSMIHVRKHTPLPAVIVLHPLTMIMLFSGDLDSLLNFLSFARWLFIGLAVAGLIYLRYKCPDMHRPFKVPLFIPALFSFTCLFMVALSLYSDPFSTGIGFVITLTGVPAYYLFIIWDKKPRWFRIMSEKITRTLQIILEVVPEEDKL
T1 sequence (P08195 1-529 partner): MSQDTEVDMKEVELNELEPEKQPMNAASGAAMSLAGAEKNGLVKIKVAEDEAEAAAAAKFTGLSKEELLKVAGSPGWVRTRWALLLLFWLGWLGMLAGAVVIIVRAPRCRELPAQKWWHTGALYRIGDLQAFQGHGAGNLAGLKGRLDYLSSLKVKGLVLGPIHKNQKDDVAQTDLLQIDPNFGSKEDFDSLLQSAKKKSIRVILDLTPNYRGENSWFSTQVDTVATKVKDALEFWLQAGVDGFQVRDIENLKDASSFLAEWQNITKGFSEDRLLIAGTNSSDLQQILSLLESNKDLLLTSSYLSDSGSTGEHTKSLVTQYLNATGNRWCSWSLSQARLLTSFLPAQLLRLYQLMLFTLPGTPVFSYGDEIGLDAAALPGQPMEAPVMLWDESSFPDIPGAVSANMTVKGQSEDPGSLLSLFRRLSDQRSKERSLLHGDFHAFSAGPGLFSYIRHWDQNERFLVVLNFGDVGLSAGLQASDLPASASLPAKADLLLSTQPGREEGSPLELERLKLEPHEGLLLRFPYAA
Procedure: For determination of the responsible uptake mechanism, NCI-H460 tumor cells were co-incubated with the F-18 labeled tracer and several cold derivatives. These derivatives were used at a concentration of 1 mM, which is a large excess compared to the tracer. L-Glutamic acid, L-cystine, Carboxyphenylglycine (CPG) were used as competitors. In addition, also D-Glutamic acid, as well as L-aspartic acid and D-aspartic acid were used in this competition experiments. […] The same experiments were performed using [^18F]-1, [^18F]-4, [^18F]-9, [^18F]-8, [^18F]-25 and [^18F]-22.

NCI-H460 tumor [1] = assay: PET imaging in NCI-H460 tumor bearing nude-mice; format: in vivo; conditions: PET at 60 min p.i., approx. 10 MBq
Procedure: a) [^18F]-1 was examined in NCI-H460 tumor bearing nude-mice using PET-imaging. Approx. 10 MBq of the tracer was injected into the animals and PET images were acquired at 60 min p.i. for 10 minutes. The H460-tumor was very well visible in the images with 3.6% ID/g as was determined by region of interest (ROI) analysis. Except of some uptake into the bladder due to the renal excretion, no uptake into non target tissues was observed.
b) [^18F]-12 was examined in the same animal model in mice as described above. Approx. 10 MBq was injected into the animals and PET images were obtained at 60 min p.i. for 10 min. The NCI-H460 tumor was very well visible and uptake of 2.7% ID/g into the tumor was calculated by ROI analysis. Except of some uptake into the gallbladder due to a partial hepatobiliary clearance of this derivative, the majority of activity is excreted renally, resulting in a strong PET signal from the bladder. No uptake in other non-target tissues was observed.

NCI-H460 tumor [2] = assay: PET imaging in NCI-H460 tumor bearing nude-rats; format: in vivo
In short: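 NCI-H460 cells were inoculated into the right flank of nude rats (RH-Foxn1 nu/nu) 8 to 10 days before imaging. PET images were acquired for 10 minutes at 60 min after injection of approximately 10 MBq tracer. Tumor, liver and kidney activity was derived by ROI analysis as %ID/g.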

[3] = tested on: NCI-H460 (human NSCLC) cells; assay: Cell uptake studies: 30 min uptake in H460 cells; format: cell-based; conditions: 0.25 MBq tracer, PBS 0.1% BSA
Procedure: For determination of the biological activity, the F18 labeled derivatives were used as tracers in cell uptake experiments. NCI-H460 (human NSCLC) cells, grown adherently in 48 well plates were used for these uptake-experiments. Approximately 100.000 cells were incubated with 0.25 MBq of the tracers for 30 min in PBS-buffer containing 0.1% BSA. After this time, the cell-bound radioactivity was determined using a γ-counter.

competition profile / uptake mechanism of the tracer (xCT (SLC7A11)): specific uptake
H460 tumor uptake by ROI analysis (NCI-H460 tumor [1]): 2.7 % ID/g
Kidney (% ID/g at 1 h p.i.) (NCI-H460 tumor [2]; PET ROI analysis, 1 h p.i.): 0.9 % ID/g
Liver (% ID/g at 1 h p.i.) (NCI-H460 tumor [2]; PET ROI analysis, 1 h p.i.): 0.8 % ID/g
Tumor (Max % ID/g at 1 h p.i.) (NCI-H460 tumor [2]; PET ROI analysis, 1 h p.i.): 2.2 % ID/g
Tumor (Mean % ID/g at 1 h p.i.) (NCI-H460 tumor [2]; PET ROI analysis, 1 h p.i.): 0.9 % ID/g
H460 tumor uptake by ROI analysis (NCI-H460 tumor [2]; PET at 60 min after injection, approx. 10 MBq): 0.9 % ID/g
SMILES: N[C@@H](CCC(Cc1ccc(OCC[18F])cc1)C(=O)O)C(=O)O (stereo partly drawn) [[^18F]-12] [(2S)-2-Amino-5-[4-(2-[^18F]fluoroethoxy)benzyl]hexanedioic acid]
30 min uptake into H460 cells [%/100.000 cells] [3]: 10.5 ± 0.3 %/100.000 cells
